One data set has as its target T1, KDR (Homo sapiens, UniProt P35968).
T1 construct: expressed in transfected cells; host or cells: CHO cells
In words: Inhibitory activity against KDR (VEGF-R2), in vitro data of Examples 170 and 207. The format is biochemical. The conditions noted are these: 10 μM; Examples 171 to 206; read-out: KDR inhibition at 10 μM. Put shortly:
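KDR tyrosine phosphorylation detected by luminescence after overnight 4° C capture of 20 μg lysate protein with PY20:AP antibody. Lysates came from cells given compound for 2 h at 37° C, then final 20 ng/ml VEGF for 5 min; compound-free medium as control.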

The target in a further data set is T2, FGFR3 (K650E) (Homo sapiens, UniProt P22607, K650E).
T2 construct: amino acids 411-806 of the cytoplasmic domain of human FGFR-3, N-terminally fused to GST; made in house; host or cells: Sf9 insect cells (baculovirus)
T2 sequence (P22607 411-806 K650E): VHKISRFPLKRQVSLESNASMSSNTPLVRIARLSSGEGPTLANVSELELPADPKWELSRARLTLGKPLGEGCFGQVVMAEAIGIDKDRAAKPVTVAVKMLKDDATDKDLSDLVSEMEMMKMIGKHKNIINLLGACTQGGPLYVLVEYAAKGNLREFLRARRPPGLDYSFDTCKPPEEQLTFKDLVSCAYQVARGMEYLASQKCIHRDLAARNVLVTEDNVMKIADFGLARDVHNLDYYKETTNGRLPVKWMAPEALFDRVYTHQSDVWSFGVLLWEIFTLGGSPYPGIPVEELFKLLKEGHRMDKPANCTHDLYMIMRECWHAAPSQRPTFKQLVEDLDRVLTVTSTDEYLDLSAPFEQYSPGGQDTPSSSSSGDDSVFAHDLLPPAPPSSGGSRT
In words: Recombinant GST-FGFR-3-K650E tyrosine kinase assay (33P into poly(Glu,Tyr)). The format is biochemical. The note with it: 10 μM; Examples 171 to 206; read-out: FGFR3 inhibition at 10 μM.

A further data set addresses c-Abl (Homo sapiens, UniProt P00519). Briefly: Inhibitory activity against c-Abl (Example 207). The conditions noted are these: Examples 171 to 206. The class given is biochemical.
In data set [1] the target is T3, FGFR35 (Homo sapiens, UniProt P22607). In words: FGFR35 (cellular assay), proliferation of Ba/F3-TEL-FGFR35 cells. The format is cell-based. Set-up: fused on or other part: N-terminal part of TEL (ETV6), which acts as the oligomerising partner; it is fused to the part of FGFR3 that carries the kinase; P41212 (Transcription factor ETV6). The note with it: 48 hours, read-out: IC50 for the FGFR35 cellular assay. As for the experimental part: Compounds of the invention are tested for their ability to inhibit transformed Ba/F3-TEL-FGFR35 cells proliferation, which is depended on FGFR35 cellular kinase activity. Ba/F3-TEL-FGFR35 are cultured up to 800,000 cells/mL in suspension, with RPMI 1640 supplemented with 10% fetal bovine serum as the culture medium. Cells are dispensed into 384-well format plate at 5000 cell/well in 50 μL culture medium. Compounds of the invention are dissolved and diluted in dimethylsulfoxide (DMSO). Twelve points 1:3 serial dilutions are made into DMSO to create concentrations gradient ranging typically from 10 mM to 0.05 μM. Cells are added with 50 nL of diluted compounds and incubated for 48 hours in cell culture incubator. AlamarBlue® (TREK Diagnostic Systems), which can be used to monitor the reducing environment created by proliferating cells, are added to cells at final concentration of 10%. After additional four hours of incubation in a 37° C. cell culture incubator, fluorescence signals from reduced AlamarBlue® (Excitation at 530 nm, Emission at 580 nm) are quantified on Analyst GT (Molecular Devices Corp.). IC50 values are calculated by linear regression analysis of the percentage inhibition of each compound at 12 concentrations.
Target sequence in this assay (P22607 472-761 limits assumed, change not shown): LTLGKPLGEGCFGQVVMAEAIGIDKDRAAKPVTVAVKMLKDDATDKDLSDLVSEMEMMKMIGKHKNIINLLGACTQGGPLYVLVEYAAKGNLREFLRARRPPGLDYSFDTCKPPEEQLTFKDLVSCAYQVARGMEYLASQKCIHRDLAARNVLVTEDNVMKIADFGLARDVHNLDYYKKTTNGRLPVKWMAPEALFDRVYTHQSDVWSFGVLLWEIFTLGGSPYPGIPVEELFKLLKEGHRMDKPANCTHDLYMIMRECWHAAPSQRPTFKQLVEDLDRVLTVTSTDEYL

The target of data set [2] is T3, FGFR35. Briefly: FGFR35 (enzymatic assay), HTRF. The note with it: purified FGFR35, 3 μM ATP; read-out: IC50 for the FGFR35 enzyme assay. The format is biochemical. Also noted: purchased Upstate. As for the experimental part:
Kinase activity assay with purified FGFR35 (Upstate) is carried out in a final volume of 10 μL containing 0.25 μg/mL of enzyme in kinase buffer (30 mM Tris-HCl pH7.5, 15 mM MgCl2, 4.5 mM MnCl2, 15 μM Na3VO4 and 50 μg/mL BSA), and substrates (5 μg/mL biotin-poly-EY(Glu, Tyr) (CIS-US, Inc.) and 3 μM ATP). Two solutions are made: the first solution of 5 μl contains the FGFR35 enzyme in kinase buffer was first dispensed into 384—format ProxiPlate® (Perkin-Elmer) followed by adding 50 nL of compounds dissolved in DMSO, then 5 μl of second solution contains the substrate (poly-EY) and ATP in kinase buffer was added to each wells. The reactions are incubated at room temperature for one hour, stopped by adding 10 μL of HTRF detection mixture, which contains 30 mM Tris-HCl pH7.5, 0.5 M KF, 50 mM ETDA, 0.2 mg/mL BSA, 15 μg/mL streptavidin-XL665 (CIS-US, Inc.) and 150 ng/mL cryptate conjugated anti-phosphotyrosine antibody (CIS-US, Inc.). After one hour of room temperature incubation to allow for streptavidin-biotin interaction, time resolved florescent signals are read on Analyst GT (Molecular Devices Corp.). IC50 values are calculated by linear regression analysis of the percentage inhibition of each compound at 12 concentrations (1:3 dilution from 50 μM to 0.28 nM).
Target sequence in this assay (P22607 23-806): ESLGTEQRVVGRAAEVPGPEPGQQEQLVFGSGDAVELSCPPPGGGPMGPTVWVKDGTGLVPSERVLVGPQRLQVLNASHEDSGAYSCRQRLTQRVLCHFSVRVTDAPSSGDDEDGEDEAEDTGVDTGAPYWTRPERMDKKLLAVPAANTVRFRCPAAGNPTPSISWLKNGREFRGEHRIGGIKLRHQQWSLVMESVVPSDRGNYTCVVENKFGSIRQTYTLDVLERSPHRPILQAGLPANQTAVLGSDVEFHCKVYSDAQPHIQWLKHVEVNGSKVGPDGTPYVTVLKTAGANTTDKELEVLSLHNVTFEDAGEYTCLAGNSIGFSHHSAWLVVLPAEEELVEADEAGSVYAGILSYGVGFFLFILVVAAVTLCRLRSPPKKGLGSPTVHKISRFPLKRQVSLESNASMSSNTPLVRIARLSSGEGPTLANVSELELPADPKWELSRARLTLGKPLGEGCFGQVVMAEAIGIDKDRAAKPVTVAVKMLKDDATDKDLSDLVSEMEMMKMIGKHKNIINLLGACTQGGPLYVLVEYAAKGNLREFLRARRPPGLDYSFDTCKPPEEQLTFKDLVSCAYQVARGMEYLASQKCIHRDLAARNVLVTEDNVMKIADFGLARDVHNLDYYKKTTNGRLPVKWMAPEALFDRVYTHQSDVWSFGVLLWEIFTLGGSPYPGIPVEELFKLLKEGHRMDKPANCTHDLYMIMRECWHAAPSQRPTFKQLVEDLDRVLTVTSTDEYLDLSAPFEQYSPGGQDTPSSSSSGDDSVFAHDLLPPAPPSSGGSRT
(In general: TR-FRET usually uses a lanthanide donor and a delayed reading to cut background.)

The target in a further data set is T4, wild type Bcr-abl (Homo sapiens, UniProt P00519).
T4 construct: the major C-terminal part (exons 2-11) of the c-abl gene; expressed in transfected cells; host or cells: murine 32D (32D-p210) or Ba/F3 cells; the other entry of the earlier key: BCR (P11274, Breakpoint cluster region protein)
In words: Antiproliferative effect on cells expressing wild type Bcr-abl. The class given is cell-based. The note with it: cell proliferation. As for the experimental part: 32D-p210 cells are plated into 96 well TC plates at a density of 15,000 cells per well. 50 μL of two fold serial dilutions of the test compound (Cmax is 40 μM) are added to each well (STI571 is included as a positive control). After incubating the cells for 48 hours at 37° C., 5% CO2, 15 μL of MTT (Promega) is added to each well and the cells are incubated for an additional 5 hours. The optical density at 570 nm is quantified spectrophotometrically and IC50 values, the concentration of compound required for 50% inhibition, determined from a dose response curve.
Compounds of the invention are tested for their antiproliferative effect on Ba/F3 cells expressing either wild type or the mutant forms of BCR-Abl (G250E, E255V, T315I, F317L, M351T) that confers resistance or diminished sensitivity to STI571. The antiproliferative effect of these compounds on the mutant-BCR-Abl expressing cells and on the non transformed cells were tested at 10, 3.3, 1.1 and 0.37 μM as described above (in media lacking IL3). The IC50 values of the compounds lacking toxicity on the untransformed cells were determined from the dose response curves obtained as describe above.

Another data set has as its target PDGFRβ (Homo sapiens, UniProt P09619). Briefly: Inhibition of PDGFRβ. The format is biochemical. As for the experimental part:
Compounds selectively inhibiting the proliferation of these BCR-Abl transformed cells are tested for anti-proliferative activity on Ba/F3 cells expressing either wild type or the mutant forms of Bcr-abl. In addition, compounds are assayed to measure their capacity to inhibit FGFR35 (in an enzyme and cellular assay), FLT3, PDGFRβ, trkB, c-SRC, BMX, SGK, Tie2, Lck, JNK2α2, MKK4, c-RAF, MKK6, SAPK2α and SAPK2β kinases.

As usually defined, the melting point is the temperature of the solid-liquid transition. For orientation: inhibition means the drop in the measured response relative to a control, in per cent. The IC50 is the concentration at which inhibition is half-maximal.

Chain of c-Abl (P00519 whole entry, the tested form may be a part): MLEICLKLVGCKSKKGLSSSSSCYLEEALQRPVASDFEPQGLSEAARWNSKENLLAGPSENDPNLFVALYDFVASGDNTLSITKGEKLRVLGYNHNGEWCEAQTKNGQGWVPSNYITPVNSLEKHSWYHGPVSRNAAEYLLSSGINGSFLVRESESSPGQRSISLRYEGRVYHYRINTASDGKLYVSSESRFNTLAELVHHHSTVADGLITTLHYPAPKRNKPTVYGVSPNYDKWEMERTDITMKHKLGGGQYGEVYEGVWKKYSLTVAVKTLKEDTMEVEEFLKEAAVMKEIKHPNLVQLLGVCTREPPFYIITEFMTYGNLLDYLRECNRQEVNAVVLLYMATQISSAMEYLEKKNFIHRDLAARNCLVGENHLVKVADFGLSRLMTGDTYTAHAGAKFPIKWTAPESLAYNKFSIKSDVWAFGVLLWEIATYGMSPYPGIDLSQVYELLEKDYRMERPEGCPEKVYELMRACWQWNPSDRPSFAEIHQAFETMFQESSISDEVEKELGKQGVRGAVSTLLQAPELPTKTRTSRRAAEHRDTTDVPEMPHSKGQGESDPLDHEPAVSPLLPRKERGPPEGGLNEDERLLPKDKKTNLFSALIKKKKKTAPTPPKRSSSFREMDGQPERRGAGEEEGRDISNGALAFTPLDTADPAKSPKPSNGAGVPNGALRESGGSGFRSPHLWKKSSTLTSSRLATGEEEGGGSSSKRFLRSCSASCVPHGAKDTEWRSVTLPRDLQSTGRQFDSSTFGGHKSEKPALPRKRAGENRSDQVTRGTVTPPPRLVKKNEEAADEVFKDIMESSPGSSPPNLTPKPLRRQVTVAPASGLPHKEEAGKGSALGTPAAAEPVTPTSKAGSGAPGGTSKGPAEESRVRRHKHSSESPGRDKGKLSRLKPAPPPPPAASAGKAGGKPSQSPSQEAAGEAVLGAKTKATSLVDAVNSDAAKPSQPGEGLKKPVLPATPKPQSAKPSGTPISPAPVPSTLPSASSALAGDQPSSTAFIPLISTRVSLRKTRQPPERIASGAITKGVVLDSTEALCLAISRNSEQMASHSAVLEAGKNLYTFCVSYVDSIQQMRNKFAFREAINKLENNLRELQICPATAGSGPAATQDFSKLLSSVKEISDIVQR
T1 sequence (P35968 20-1356): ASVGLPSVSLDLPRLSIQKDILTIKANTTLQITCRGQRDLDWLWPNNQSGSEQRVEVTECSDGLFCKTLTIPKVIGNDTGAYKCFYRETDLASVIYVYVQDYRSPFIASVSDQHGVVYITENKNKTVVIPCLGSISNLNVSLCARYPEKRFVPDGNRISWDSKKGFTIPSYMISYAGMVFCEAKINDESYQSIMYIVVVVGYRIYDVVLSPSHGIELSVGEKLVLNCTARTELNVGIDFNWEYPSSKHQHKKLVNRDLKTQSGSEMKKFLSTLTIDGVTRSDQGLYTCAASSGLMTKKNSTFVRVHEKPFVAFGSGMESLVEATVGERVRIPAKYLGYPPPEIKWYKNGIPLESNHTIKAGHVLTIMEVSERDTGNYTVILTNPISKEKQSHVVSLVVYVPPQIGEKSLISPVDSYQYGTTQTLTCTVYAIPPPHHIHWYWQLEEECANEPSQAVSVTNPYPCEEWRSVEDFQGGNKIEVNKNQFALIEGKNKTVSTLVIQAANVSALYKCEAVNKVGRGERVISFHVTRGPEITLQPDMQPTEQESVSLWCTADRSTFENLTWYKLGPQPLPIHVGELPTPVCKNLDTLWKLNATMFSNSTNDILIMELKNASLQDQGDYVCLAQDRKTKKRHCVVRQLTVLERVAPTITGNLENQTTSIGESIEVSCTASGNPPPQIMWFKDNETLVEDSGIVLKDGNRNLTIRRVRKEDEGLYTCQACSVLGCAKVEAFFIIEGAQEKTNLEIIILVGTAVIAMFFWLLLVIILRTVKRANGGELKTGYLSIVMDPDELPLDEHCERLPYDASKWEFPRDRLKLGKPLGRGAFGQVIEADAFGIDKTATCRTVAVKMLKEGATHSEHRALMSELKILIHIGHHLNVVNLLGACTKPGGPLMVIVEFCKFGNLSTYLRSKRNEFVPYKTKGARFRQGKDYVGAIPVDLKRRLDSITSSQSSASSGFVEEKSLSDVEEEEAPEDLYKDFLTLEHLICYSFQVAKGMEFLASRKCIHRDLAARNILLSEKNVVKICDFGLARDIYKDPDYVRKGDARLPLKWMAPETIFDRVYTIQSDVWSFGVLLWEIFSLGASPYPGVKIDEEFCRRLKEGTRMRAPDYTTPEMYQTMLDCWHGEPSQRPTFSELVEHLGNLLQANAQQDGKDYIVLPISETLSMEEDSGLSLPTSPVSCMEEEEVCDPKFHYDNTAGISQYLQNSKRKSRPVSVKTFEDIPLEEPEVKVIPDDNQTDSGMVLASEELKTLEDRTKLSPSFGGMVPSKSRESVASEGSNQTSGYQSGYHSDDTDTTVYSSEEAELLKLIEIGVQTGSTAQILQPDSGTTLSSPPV
Chain of PDGFRβ (P09619 33-1106, species assumed): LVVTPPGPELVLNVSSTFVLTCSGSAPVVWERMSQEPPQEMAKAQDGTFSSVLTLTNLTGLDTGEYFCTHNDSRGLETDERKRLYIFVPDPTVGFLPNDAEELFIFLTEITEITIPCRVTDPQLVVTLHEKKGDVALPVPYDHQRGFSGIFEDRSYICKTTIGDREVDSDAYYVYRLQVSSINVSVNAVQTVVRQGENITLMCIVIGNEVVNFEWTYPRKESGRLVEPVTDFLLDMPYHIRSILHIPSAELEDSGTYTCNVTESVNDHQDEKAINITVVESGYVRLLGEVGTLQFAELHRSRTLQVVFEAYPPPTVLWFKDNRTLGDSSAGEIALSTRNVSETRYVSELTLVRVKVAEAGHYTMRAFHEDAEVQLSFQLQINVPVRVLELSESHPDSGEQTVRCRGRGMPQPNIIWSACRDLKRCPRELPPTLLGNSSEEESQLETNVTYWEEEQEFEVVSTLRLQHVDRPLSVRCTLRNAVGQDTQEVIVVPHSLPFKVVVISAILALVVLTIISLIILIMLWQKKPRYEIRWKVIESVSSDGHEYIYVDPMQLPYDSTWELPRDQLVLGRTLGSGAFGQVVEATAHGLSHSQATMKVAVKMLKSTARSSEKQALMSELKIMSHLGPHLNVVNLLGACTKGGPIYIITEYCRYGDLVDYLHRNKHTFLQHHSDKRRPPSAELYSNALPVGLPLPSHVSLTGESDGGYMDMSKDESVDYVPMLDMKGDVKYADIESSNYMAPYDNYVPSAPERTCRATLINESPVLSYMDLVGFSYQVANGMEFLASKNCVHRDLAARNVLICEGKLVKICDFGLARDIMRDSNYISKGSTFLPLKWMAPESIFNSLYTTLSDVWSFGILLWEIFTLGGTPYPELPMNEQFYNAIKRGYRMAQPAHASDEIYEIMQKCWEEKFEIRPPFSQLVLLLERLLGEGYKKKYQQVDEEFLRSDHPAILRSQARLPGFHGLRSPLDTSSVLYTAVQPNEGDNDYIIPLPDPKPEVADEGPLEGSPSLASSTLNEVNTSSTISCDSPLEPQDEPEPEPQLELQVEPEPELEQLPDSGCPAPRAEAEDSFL

`Cc1ccc(NC(=O)c2cccc(C(F)(F)F)c2)cc1NC(=O)N(C)c1cc(Nc2ccc(N3CCN(C)CC3)cc2)ncn1` [Example 171, N-[4-Methyl-3-(3-methyl-3-{6-[4-(4-methyl-piperazin-1-yl)-phenyl-amino]-pyrimidin-4-yl}-ureido)-phenyl]-3-trifluoromethyl-benzamide] yielded a melting point of 189.5 to 191 °C. In addition, the inhibition at 10 µM on KDR lay in the range of 87 to 100%. Moreover, the inhibition at 10 µM at FGFR3 (K650E) was in the range of 56 to 98%. The compound further had an inhibition at 10 µM against c-Abl of 79 to 100%.
The like results for `Cc1ccc(NC(=O)c2ccc(CN3CCN(C)CC3)c(C(F)(F)F)c2)cc1NC(=O)N(C)c1cc(N)ncn1` [Example 194, N-{3-[3-(6-Amino-pyrimidin-4-yl)-3-methyl-ureido]-4-methyl-phenyl}-4-(4-methyl-piperazin-1-ylmethyl)-3-trifluoromethyl-benzamide] were, in that order, 191.5 to 193 °C, 87 to 100%, 56 to 98% and 79 to 100%.
On to `Cc1ccc(NC(=O)c2cccc(C(F)(F)F)c2)cc1NC(=O)N(CCN1CCOCC1)c1cc(N)ncn1` [Example 214, N-{3-[3-(6-Amino-pyrimidin-4-yl)-3-(2-morpholin-4-yl-ethyl)-ureido]-4-methyl-phenyl}-3-trifluoromethyl-benzamide], for which the GI50 on FGFR35 [1] is 49 nM. Moreover, the IC50 is 65 nM at FGFR35 [2], 14.9 nM on wild type Bcr-abl and 0.4 nM on PDGFRβ.

These data come from patent US8552002B2 (Novartis AG, priority 2004, dated 2013).
